In ChEMBL document CHEMBL1649380, “Prediction of drug intestinal absorption by new linear and non-linear QSPR” (Eur J Med Chem, 2011):

Assay: Drug absorption in human assessed as human intestinal absorption rate
Format: ADME, tissue-based, Intestine

| Compound | log10(%HIA +10) |
| --- | --- |
| N=C(N)NC(=O)c1nc(Cl)c(N)nc1N [AMILORIDE] | 1.778 |
| O=C(O)CN(CCN(CC(=O)O)CC(=O)O)CC(=O)O [EDETIC ACID] | 1.176 |
| Nc1cc(N2CCCCC2)nc(N)[n+]1[O-] [MINOXIDIL] | 2.033 |
| COc1ccc2c(C(=S)N(C)CC(=O)O)cccc2c1C(F)(F)F [TOLRESTAT] | 1.881 |
| C=CCc1ccccc1OCC(O)CNC(C)C (stereo not drawn) [ALPRENOLOL] | 2.016 |
| O=C(O)P(=O)(O)O [FOSCARNET] | 1.431 |
| Cc1onc(-c2c(F)cccc2Cl)c1C(=O)N[C@@H]1C(=O)N2[C@@H]1SC(C)(C)[C@@H]2C(=O)O [FLOXACILLIN] | 1.699 |
| NC[C@H]1O[C@H](O[C@H]2[C@H](O)[C@@H](O[C@H]3O[C@H](CO)[C@@H](O)[C@H](N)[C@H]3O)[C@H](N)C[C@@H]2N)[C@H](O)[C@@H](O)[C@@H]1O [KANAMYCIN] | 1.041 |
| COc1ccc2c3c1O[C@H]1C(=O)CC[C@@]4(O)[C@@H](C2)N(C)CC[C@]314 [OXYCODONE] | 1.845 |
| CC(=O)OCC(CCn1cnc2cnc(N)nc21)COC(C)=O [FAMCICLOVIR] | 1.903 |
| OC[C@H]1O[C@H](OC[C@H]2O[C@H](O[C@]3(CO)O[C@H](CO)[C@@H](O)[C@@H]3O)[C@H](O)[C@@H](O)[C@@H]2O)[C@H](O)[C@@H](O)[C@H]1O [RAFFINOSE] | 1.013 |
| CNC(=C[N+](=O)[O-])NCCSCc1ccc(CN(C)C)o1 [RANITIDINE] | 1.798 |
| CCOC(=O)C1=C(C)NC(C)=C(C(=O)OC)C1c1cccc([N+](=O)[O-])c1 (stereo not drawn) [NITRENDIPINE] | 1.991 |
| O=P(O)(O)C(O)(Cc1cccnc1)P(=O)(O)O [RISEDRONIC ACID] | 1.041 |
| CO[C@H]1C[C@H](O[C@H]2CC[C@]3(C=O)[C@H]4CC[C@]5(C)[C@@H](C6=CC(=O)OC6)CC[C@]5(O)[C@@H]4CC[C@]3(O)C2)O[C@H](C)[C@H]1O [CYMARIN] | 1.756 |
| CC(=O)NCCCS(=O)(=O)O [ACAMPROSATE] | 1.322 |
| NCCCC[C@H](N[C@@H](CCc1ccccc1)C(=O)O)C(=O)N1CCC[C@H]1C(=O)O [LISINOPRIL ANHYDROUS] | 1.544 |

| Compound | log10(%HIA +10) |
| --- | --- |
| Cc1cc(=O)n(-c2ccccc2)n1C [ANTIPYRINE] | 2.041 |
| [H]/N=C(/N)N[C@H]1[C@H](O)[C@@H](O)[C@H](O[C@@H]2O[C@@H](C)[C@](O)(C=O)[C@H]2O[C@@H]2O[C@@H](CO)[C@H](O)[C@@H](O)[C@@H]2NC)[C@@H](N/C(N)=N\[H])[C@@H]1O [STREPTOMYCIN] | 1.041 |
| CC(C)NCC(O)COc1ccc(CCOCC2CC2)cc1 (stereo not drawn) [BETAXOLOL] | 2 |
| O=C(c1ccccc1)c1ccc2n1CCC2C(=O)O (stereo not drawn) [KETOROLAC] | 2 |
| IVERMECTIN | 1.845 |
| NC(N)=Nc1nc(CSCCC(N)=NS(N)(=O)=O)cs1 [FAMOTIDINE] | 1.681 |
| C[C@@H](O)[C@H]1C(=O)N2C(C(=O)O)=C(S[C@@H]3CN[C@H](C(=O)N(C)C)C3)[C@H](C)[C@H]12 [MEROPENEM] | 1 |
| Cc1ccccc1N1C(=O)c2cc(S(N)(=O)=O)c(Cl)cc2NC1C (stereo not drawn) [METOLAZONE] | 1.863 |
| Cc1cc(C(=O)NNCc2ccccc2)no1 [ISOCARBOXAZID] | 1.903 |
| Oc1ccc(C(O)C2CCCCN2)cc1O (stereo not drawn) [RIMITEROL] | 1.763 |
| CC(=O)Nc1ccc(O)cc1 [ACETAMINOPHEN] | 1.978 |
| CCCCNC(=O)NS(=O)(=O)c1ccc(C)cc1 [TOLBUTAMIDE] | 1.978 |
| CCOC(=O)C(C)(C)Oc1ccc(Cl)cc1 [CLOFIBRATE] | 1.987 |
| O=C(O)CCC(=O)Nc1ccc(S(=O)(=O)Nc2nccs2)cc1 [SUCCINYLSULFATHIAZOLE] | 1.176 |
| CCc1cccc2c3c([nH]c12)C(CC)(CC(=O)O)OCC3 (stereo not drawn) [ETODOLAC] | 1.903 |
| N=C(N)c1ccc(OCCCCCOc2ccc(C(=N)N)cc2)cc1 [PENTAMIDINE] | 1 |
